According to patent US11389423B2, “Pharmaceutical composition, excipient for the composition and use of the composition” (priority 2018, dated 2022):

Legend:
[1] = system: rats with MPTP microinfusion into the substantia nigra; test: Open field test (motor activity), MPTP model; assay type: in vivo; settings: oral
Procedure: The number of animals per group was ten (10) subjects. This number was estimated based on internationally recognized and scientifically validated protocols. The doses of the CBD-SINT formulation were determined by allometric extrapolation from the average dose used in human patients (600 mg/day, which in a 70 kg individual represents approximately 9 mg/kg), obtaining an average dose of ˜36 mg/kg CBD in rats.
For the calculation of the three doses, the intermediate dose was used as a reference, and then a higher and a lower dose was stipulated on a logarithmic scale. To stipulate the lowest dose, ⅓ of the median dose was used. For the higher dose, a safety factor of 10 times the lower dose was used. Thus, the doses of CBD-SINT used in this trial were: 12, 36 and 120 mg/kg. […]
CBD-SINT and placebo were administered orally (gavage) for 18 days prior to the administration of the neurotoxin by stereotactic surgery, and for another 10 days after surgery. After the administration of the neurotoxin, the behavioral (locomotor activity) and biochemical (brain dopamine dosage) parameters were evaluated after 24 hours and after 10 days. […]
The animals were placed on the central circle of the open field and its behavior evaluated for 5 minutes. […] Each animal was assessed individually, and the device was cleaned between animals with 5% alcohol solution (FIG. 15).

mice (male and female) = test: Single dose (acute) toxicity study in mice; assay type: in vivo
Procedure: The single-dose (acute) toxicity study was carried out with different groups of rats and mice (male and female) and according to the procedures recommended by OECD (2001) and ANVISA (2013).
After a 6 h-fasting period, the animals' body weight was determined, and the dose of the synthetic CBD was calculated. Two single doses (1000 and 2000 mg/kg) of synthetic CBD were administered orally (with the aid of a gavage probe) and intraperitoneally in different groups of rats and mice (male and female). Other different groups of rodents were treated with placebo and were considered as control groups.
The animals were carefully observed for any toxicity signs within the first eight hours after treatment, and daily for a period of 14 days. On the 15th day all animals were euthanized, and the respective anatomopathological investigations were performed on the 15th day after the treatments.

male rabbits = test: Arterial blood gas analysis; assay type: in vivo, New Zealand rabbits; settings: male rabbits, 17, 51 and 170 mg/kg by gavage
Procedure: Male New Zealand rabbits (n=6 per group) were used for pharmacological safety tests. All tests were performed orally (route recommended for humans) and the investigated parameters were determined after a single administration of CBD-SINT. CBD-SINT doses were determined by allometric extrapolation from the average dose used in human patients (25 mg/kg).
The dose of 51 mg/kg was used as the intermediate dose, stipulating a higher and a lower dose. Three dose ranges were used according to the Guide for Conducting Non-Clinical Toxicology and Pharmacological Safety Studies Necessary for Drug Development (ANVISA, 2013; Version 1.2). Thus, the doses used were 17, 51 and 170 mg/kg of CBD-SINT.
After 6-h fasting, three doses of CBD-SINT (17, 51 and 170 mg/kg) were administered to different groups of male rabbits by gavage. […] The respiratory rate was determined using a Kofranyi-Michaelis respirometer (Murphy, 2002). […] All parameters below were determined on a Cobas b 221 multiparametric blood gas analyzer (Roche Diagnostics, Rotkreuz, Switzerland): pH, PCO2 (mm Hg), PO2 (mm Hg), SO2(%), Htc (%), tHb (g/dL), Na+ (mmol/L), K+ (mmol/L), Ca2+ (mmol/L), Cl− (mmol/L), glucose (mg/dL), lactate (mmol/L), O2Hb (%), HHb (%), P50 (mm Hg), H+ (nmol/L), BE (nmol/L), BEecf (nmol/L), BB (mmol/L), cHCO3 (mmol/L), ctCO2 (B) (mmol/L), ctCO2 (P) (mmol/L) and ctO2 (% by volume).

[2] = system: DNA of male and female rats; settings: rats male and female, 500, 1000 and 2000 mg/kg orally, 48 hours, peripheral blood
Procedure: The negative control group received placebo by gavage and the positive control was treated with cyclophosphamide monohydrate (20 mg/kg—Sigma-Aldrich) intraperitoneally.

[3] = 1000 mg/kg and 2000 mg/kg intraperitoneally, single dose

With `C=C(C)[C@@H]1CCC(C)=C[C@H]1c1c(O)cc(CCCCC)cc1O` [CBD-SINT, Cannabidiol] the “latency time and frequency of standing compared to CBD-FITO in the same concentration” value [1] was “a lower concentration had a more effective result”, the “abdominal contortions during the first 8 hours” value (mice (male and female); [3]) was “occasional abdominal contortions” and the “activity during the first 8 hours of observation” value (mice (male and female); [3]) was “significant decrease in its activity”. The “daily feed and water consumption compared to placebo” value (mice (male and female); 1000 and 2000 mg/kg, oral or intraperitoneal) was “no change”, the “final body weight and body weight gains vs placebo” value (mice (male and female); 1000 and 2000 mg/kg, oral or intraperitoneal, 14 days) was “similar” and the “appearance and general behavior pattern until the end of the 14-days observation” value (mice (male and female); 1000 and 2000 mg/kg, oral or intraperitoneal, after the first 8 h) was “no significant changes”. For the same compound, the “absolute (g) or relative (%) weight of all organs vs placebo” value (mice (male and female); after 14 days) was “no significant differences”, the histopathological analyzes (mice (male and female); day 15) was “no significant changes” and the “macroscopic examination of vital organs” value (mice (male and female); day 15) was “did not disclose any abnormalities”. The “deaths (LD50 not set forth)” value (mice (male and female); doses up to 2000 mg/kg orally or intraperitoneally, 14 days) was “no deaths were observed”, the “arterial blood gases, electrolytes and metabolites (pH, PCO2, PO2, SO2, Htc, tHb, Na+, K+, Ca2+, Cl-, glucose, lactate, O2Hb, HHb, P50, H+, BE, BEecf, BB, cHCO3, ctCO2, ctO2) vs placebo” value (male rabbits) was “none of the CBD-SINT doses changed” and the “DNA damage (Damage Index and Damage Frequency) vs negative control (placebo)” value [2] was “none of the tested doses of CBD-SINT induced any significant changes”.
